In the experiment the target is T1, human NK1 receptor (Homo sapiens, UniProt P25103).
T1 construct: expressed in transfected cells
The experiment is described as follows: human NK1 receptor binding assay (125I-substance P, COS or CHO cells). The method, then: To express the cloned human neurokinin-1 receptor (NKIR) transiently in COS, the cDNA for the human NKIR was cloned into the expression vector pCDM9 which was derived from pCDM8 (INVITROGEN) by inserting the ampicillin resistance gene (nucleotide 1973 to 2964 from BLUESCRIPT SK+) into the Sac II site. Transfection of 20 ug of the plasmid DNA into 10 million COS cells was achieved by electroporation in 800 ul of transfection buffer (135 mM NaCl, 1.2 mM CaCl2, 1.2 mM MgCl2, 2.4 mM K2HPO4, 0.6 mM KH2PO4, 10 mM glucose, 10 mM HEPES pH 7.4) at 260 V and 950 uF using the IBI GENEZAPPER (IBI, New Haven, Conn.). The cells were incubated in 10% fetal calf serum, 2 mM glutamine, 100U/ml penicillin-streptomycin, and 90% DMEM media (GIBCO, Grand Island, N.Y.) in 5% CO2 at 37° C. for three days before the binding assay.
To establish a stable cell line expressing the cloned human NK1R, the cDNA was subcloned into the vector pRcCMV (INVITROGEN). Transfection of 20 ug of the plasmid DNA into CHO cells was achieved by electroporation in 800 ul of transfection buffer suplemented with 0.625 mg/ml Herring sperm DNA at 300 V and 950 uF using the IBI GENEZAPPER (IBI). The transfected cells were incubated in CHO media [10 % fetal calf serum, 100 U/ml pennicilin-streptomycin, 2 mM glutamine, 1/500 hypoxanthine-thymidine (ATCC), 90% IMDM media (JRH BIOSClENCES, Lenexa, Kans.), 0.7 mg/ml G418 (GIBCO)] in 5% CO2 at 37° C. until colonies were visible. Each colony was separated and propagated. The cell clone with the highest number of human NK1R was selected for subsequent applications such as drug screening.
The binding assay of human NK1R expressed in either COS or CHO cells is based on the use of ^125I-substance P (^125I-SP, from DU PONT, Boston, Mass.) as a radioactively labeled ligand which competes with unlabeled substance P or any other ligand for binding to the human NK1R. Monolayer cell cultures of COS or CHO were dissociated by the non-enzymatic solution (SPECIALTY MEDIA, Lavallette, N.J.) and resuspended in appropriate volume of the binding buffer (50 mM Tris pH 7.5, 5 mM MnCl2, 150 mM NaCl, 0.04 mg/ml bacitracin, 0.004 mg/ml leupeptin, 0.2 mg/ml BSA, 0.01 mM phosphoramidon) such that 200 ul of the cell suspension would give rise to about 10,000 cpm of specific ^125I-SP binding (approximately 50,000 to 200,000 cells). […] The bound radioactivity was separated from unbound radioactivity by GF/C filter (BRANDEL, Gaithersburg, Md.) which was pre-wetted with 0.1 % polyethylenimine. The filter was washed with 3 ml of wash buffer (50 mM Tris pH 7.5, 5 mM MnCl2, 150 mM NaCl) three times and its radioactivity was determined by gamma counter.

The values that follow come from US6727244B2, “Mammalian metabolites of a tachykinin receptor antagonist” (Merck & Co., Inc., priority 2000, dated 2004).

T1 sequence (P25103 whole entry): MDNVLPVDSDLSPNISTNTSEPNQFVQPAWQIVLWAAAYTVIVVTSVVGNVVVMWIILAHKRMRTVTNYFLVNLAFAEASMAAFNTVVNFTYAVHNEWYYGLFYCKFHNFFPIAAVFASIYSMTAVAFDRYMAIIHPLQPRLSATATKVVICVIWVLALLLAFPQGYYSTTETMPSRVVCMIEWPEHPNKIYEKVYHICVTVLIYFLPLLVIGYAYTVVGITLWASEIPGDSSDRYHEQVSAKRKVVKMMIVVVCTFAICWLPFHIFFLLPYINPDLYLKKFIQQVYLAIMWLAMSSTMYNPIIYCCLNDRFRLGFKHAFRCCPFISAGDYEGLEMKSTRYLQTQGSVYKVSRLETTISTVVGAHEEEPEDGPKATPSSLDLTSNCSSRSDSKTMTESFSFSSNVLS

Broadly, the IC50 is the concentration needed to halve the response being measured. Low readings indicate inhibition by little substance, high ones a need for much substance. As to `C[C@@H](O[C@H]1OCCN[C@H]1c1ccc(F)cc1)c1cc(C(F)(F)F)cc(C(F)(F)F)c1` [Metabolite M-1, (2R,3S)-2-[(1R)-1-[3,5-bis(trifluoromethyl)phenyl]ethoxy]-3-(4-fluorophenyl)morpholine], the 50% inhibitory concentration (IC50) was 1 nM.
